Active and inactive are the calls of the source. Bounds are passed on as bounds.

As a reminder, the AC50 is the midpoint of the concentration-response curve, whichever way the signal moves.

The target in experiment [1] is Diacylglycerol lipase-beta (Mus musculus, UniProt Q91WC9). Briefly: Late stage assay provider results from the probe development effort to identify inhibitors of diacylglycerol lipase, beta (DAGLb): fluorescence-based dose-response biochemical gel-based competitive Activity-Based Protein Profiling (ABPP) inhibition of DAGLb in vitro. It is filed as functional.
Experiment [2] has as its target T1, ATP-dependent translocase ABCB1 (Homo sapiens, UniProt P08183). Kind of experiment: ABCG2 efflux pump inhibitor potency, dose response, Ig-MXP3 cells, JC-1, flow cytometry, set 2 (AID 504566).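 Further: flow cytometry median green fluorescence of retained JC-1 dye; potency of efflux pump inhibition measured as rising substrate retention.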 The class given is functional. The note with it: read-out: EC50_MICROM_.
Experiment [3] deals with T1, ATP-dependent translocase ABCB1. Kind of experiment: ABCB1 efflux inhibitor potency, dose response, Jurkat-DNR cells, JC-1, flow cytometry, set 2 (AID 504569).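 Further: potency of pump inhibitors that raise cellular JC-1 green fluorescence up to the nicardipine level.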 It is filed as functional. The settings on record: read-out: EC50_MICROM_. Background: Flow cytometry measures light scatter and fluorescence of single cells or particles in a stream.
Another experiment deals with Prothrombin (Bos taurus, UniProt P00735). Kind of experiment: thrombin inhibition, dose response, biochemical, fluorescence polarization, uHTS hits (AID 602369). It is filed as functional. (In general: Polarisation of emitted light reports the rotation of a fluorescent probe.)
The target in experiment [4] is T2, Histone-lysine N-methyltransferase NSD2 (Homo sapiens, UniProt O96028).
T2 sequence (O96028 whole entry): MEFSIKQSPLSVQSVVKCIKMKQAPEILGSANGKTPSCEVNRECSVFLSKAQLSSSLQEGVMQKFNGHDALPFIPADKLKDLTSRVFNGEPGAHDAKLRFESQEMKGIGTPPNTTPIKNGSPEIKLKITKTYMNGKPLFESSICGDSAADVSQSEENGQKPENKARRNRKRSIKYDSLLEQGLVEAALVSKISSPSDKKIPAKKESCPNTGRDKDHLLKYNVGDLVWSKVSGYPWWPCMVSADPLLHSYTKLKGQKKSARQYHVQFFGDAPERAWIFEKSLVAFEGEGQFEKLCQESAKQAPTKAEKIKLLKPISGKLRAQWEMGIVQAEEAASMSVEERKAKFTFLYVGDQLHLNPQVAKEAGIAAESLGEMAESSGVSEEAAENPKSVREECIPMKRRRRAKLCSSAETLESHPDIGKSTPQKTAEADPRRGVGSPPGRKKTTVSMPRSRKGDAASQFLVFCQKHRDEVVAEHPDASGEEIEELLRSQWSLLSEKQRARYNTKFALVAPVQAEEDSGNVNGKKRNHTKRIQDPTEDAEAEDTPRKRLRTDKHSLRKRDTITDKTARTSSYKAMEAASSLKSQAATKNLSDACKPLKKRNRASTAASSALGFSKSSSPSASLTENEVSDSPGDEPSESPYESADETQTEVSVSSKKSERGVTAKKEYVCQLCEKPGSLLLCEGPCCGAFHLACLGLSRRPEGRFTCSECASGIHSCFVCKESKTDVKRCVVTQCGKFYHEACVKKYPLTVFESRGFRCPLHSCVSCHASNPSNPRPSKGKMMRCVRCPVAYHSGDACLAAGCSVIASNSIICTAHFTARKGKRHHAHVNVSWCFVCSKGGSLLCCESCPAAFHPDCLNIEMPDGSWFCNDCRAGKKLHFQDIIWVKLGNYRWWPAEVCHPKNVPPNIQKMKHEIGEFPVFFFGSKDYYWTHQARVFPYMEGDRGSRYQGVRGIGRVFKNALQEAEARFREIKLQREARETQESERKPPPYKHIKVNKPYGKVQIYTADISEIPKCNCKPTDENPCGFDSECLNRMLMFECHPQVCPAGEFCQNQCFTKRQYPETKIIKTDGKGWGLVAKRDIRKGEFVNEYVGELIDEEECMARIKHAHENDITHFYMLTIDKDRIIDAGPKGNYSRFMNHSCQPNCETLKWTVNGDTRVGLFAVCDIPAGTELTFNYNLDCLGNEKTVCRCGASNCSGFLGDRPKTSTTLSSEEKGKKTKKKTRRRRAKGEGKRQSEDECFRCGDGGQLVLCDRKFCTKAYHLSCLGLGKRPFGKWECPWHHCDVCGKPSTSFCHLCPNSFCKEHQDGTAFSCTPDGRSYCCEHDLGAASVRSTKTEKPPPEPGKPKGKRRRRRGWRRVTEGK
It is filed as biochemical.

The target in experiment [5] is 72 kDa type IV collagenase (Homo sapiens, UniProt P08253). Kind of experiment: Dose Response validation of uHTS RPN11 inhibitor hits using a MMP-2 Fluorescence assay. The class given is functional.
In experiment [6] the target is T3, Rac GTPase-activating protein 1 (Homo sapiens, UniProt Q9H0H5).
T3 sequence (Q9H0H5 whole entry): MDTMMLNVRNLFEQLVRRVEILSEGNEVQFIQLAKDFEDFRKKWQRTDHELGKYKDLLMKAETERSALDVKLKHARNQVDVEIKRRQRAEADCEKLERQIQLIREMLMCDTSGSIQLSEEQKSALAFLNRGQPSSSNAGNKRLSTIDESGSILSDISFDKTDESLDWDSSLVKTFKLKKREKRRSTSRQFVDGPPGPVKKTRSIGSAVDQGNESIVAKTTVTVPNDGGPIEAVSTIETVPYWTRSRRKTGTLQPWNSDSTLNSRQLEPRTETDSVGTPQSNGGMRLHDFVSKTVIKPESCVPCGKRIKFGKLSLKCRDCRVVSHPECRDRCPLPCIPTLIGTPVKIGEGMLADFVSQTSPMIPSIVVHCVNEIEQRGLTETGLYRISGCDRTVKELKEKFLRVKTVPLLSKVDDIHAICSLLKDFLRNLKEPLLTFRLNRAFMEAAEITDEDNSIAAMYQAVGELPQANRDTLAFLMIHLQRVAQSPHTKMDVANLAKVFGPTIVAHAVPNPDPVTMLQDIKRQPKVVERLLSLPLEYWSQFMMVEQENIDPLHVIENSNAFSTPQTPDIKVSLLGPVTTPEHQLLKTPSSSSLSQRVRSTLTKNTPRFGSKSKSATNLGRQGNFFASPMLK
Briefly: MgcRacGAP GTPase-activating activity inhibitors, confirmation, biochemical, ADP Hunter fluorescence, primary and confirmatory (AID 624330). It is filed as functional.

For experiment [7], the target named is 26S proteasome non-ATPase regulatory subunit 14 (Homo sapiens, UniProt O00487). Briefly: inhibition of proteasome subunit RPN11 – biochemical, fluorescence polarization, uHTS hits, confirmation (AID 602368). The class given is functional.
In experiment [8] the target is DNA (cytosine-5)-methyltransferase 1 (Homo sapiens, UniProt P26358). Kind of experiment: DNMT1 methyltransferase inhibitors, confirmation, biochemical, fluorescent molecular beacon (AID 602386). It is filed as functional.
For experiment [9], the target named is T4, Short transient receptor potential channel 4 (Mus musculus, UniProt Q9QUQ5).
T4 sequence (Q9QUQ5 whole entry): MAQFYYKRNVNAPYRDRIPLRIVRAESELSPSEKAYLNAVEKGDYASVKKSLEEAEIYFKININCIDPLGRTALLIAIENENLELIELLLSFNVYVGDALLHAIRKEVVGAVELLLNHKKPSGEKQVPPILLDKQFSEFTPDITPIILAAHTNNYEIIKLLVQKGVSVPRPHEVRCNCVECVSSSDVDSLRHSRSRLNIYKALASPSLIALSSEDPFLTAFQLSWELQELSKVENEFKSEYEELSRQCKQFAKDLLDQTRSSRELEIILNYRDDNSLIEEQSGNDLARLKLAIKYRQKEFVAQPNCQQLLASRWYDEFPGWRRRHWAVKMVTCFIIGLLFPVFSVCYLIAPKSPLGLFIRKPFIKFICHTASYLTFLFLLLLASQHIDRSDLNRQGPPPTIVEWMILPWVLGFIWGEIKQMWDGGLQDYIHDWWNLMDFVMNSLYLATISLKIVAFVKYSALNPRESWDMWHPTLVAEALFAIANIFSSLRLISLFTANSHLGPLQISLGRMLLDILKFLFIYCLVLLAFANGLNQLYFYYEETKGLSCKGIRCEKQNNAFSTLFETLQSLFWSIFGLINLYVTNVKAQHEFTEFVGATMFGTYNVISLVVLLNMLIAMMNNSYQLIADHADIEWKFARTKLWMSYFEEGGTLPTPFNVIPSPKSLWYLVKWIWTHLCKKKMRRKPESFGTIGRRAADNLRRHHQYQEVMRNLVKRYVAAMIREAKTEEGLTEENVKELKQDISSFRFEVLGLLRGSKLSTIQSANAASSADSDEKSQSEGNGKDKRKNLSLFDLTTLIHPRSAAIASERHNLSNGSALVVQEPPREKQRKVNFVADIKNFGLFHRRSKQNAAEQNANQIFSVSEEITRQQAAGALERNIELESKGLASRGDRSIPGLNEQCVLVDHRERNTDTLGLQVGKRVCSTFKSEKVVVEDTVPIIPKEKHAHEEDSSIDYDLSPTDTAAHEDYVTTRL
Kind of experiment: mouse TRPC4 channel inhibitors, dose response, cell-based, HEK293 TRPC4/mu-opioid, Fluo-4 calcium (AID 434942).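 Further: potency of inhibitors blocking the TRPC4 calcium response.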 It is filed as functional.

The target in experiment [10] is T5, Apoptotic protease-activating factor 1 (Homo sapiens, UniProt O14727).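 Further: caspase-3 cleavage of fluorogenic Rh110 DEVD substrate downstream of apoptosome activation.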
T5 sequence (O14727 whole entry): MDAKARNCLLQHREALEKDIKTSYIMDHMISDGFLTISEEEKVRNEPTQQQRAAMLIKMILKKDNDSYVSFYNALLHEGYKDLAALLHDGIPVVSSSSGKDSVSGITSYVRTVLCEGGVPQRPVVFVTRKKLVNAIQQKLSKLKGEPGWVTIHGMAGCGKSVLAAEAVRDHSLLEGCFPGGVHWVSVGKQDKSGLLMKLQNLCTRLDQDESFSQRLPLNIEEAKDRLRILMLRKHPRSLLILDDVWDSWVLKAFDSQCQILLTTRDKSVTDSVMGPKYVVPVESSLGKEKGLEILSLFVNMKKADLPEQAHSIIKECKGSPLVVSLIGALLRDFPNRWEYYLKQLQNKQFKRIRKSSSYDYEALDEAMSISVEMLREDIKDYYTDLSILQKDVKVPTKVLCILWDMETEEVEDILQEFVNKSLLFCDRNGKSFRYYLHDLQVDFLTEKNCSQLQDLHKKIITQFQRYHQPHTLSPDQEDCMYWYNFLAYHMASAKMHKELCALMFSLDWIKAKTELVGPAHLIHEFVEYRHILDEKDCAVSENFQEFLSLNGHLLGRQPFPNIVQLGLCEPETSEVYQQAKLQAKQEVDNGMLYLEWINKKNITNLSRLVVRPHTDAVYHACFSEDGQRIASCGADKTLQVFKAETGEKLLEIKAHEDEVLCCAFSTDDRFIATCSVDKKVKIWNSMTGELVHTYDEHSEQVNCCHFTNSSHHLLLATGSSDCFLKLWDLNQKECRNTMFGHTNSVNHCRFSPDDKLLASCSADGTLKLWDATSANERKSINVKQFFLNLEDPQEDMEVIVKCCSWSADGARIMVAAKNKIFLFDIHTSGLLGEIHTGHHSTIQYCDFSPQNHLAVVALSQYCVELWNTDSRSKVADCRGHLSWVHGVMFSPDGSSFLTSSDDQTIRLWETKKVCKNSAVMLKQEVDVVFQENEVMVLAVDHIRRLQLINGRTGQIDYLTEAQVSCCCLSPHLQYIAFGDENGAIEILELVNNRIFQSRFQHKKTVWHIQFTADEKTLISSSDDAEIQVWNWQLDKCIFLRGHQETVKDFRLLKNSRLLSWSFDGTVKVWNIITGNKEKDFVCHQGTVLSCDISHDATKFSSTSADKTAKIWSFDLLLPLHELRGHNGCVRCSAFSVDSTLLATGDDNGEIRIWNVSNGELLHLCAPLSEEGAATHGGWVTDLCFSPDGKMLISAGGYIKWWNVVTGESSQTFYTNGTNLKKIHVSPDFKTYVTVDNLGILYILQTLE
Briefly: SAR analysis of small molecule Activators of Apaf-1 in a Fluorescent assay. It is filed as functional. The note with it: read-out: EC50_Mean.

Experiment [11] concerns the target T6, Interleukin-8 (Homo sapiens, UniProt P10145).
T6 sequence (P10145 whole entry): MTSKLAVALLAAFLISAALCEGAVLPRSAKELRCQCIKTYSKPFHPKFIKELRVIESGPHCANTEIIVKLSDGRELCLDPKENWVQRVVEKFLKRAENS
Kind of experiment: Dose Response confirmation of uHTS small molecule hits for cystic fibrosis induced NFkb Inhibitors in a TNFa-induced IL8 counterscreen. The settings on record: read-out: IC50_Mean. The class given is functional. On the technique in general: The purpose of a counterscreen is to sort out artefacts and off-target activity.

In experiment [12] the target is T6, Interleukin-8. Kind of experiment: Dose Response confirmation of uHTS small molecule hits for cystic fibrosis induced NFkb Inhibitors in a PAF-induced IL8 counterscreen. The class given is functional. The settings on record: read-out: IC50_Mean.

Chain of 72 kDa type IV collagenase (P08253 whole entry): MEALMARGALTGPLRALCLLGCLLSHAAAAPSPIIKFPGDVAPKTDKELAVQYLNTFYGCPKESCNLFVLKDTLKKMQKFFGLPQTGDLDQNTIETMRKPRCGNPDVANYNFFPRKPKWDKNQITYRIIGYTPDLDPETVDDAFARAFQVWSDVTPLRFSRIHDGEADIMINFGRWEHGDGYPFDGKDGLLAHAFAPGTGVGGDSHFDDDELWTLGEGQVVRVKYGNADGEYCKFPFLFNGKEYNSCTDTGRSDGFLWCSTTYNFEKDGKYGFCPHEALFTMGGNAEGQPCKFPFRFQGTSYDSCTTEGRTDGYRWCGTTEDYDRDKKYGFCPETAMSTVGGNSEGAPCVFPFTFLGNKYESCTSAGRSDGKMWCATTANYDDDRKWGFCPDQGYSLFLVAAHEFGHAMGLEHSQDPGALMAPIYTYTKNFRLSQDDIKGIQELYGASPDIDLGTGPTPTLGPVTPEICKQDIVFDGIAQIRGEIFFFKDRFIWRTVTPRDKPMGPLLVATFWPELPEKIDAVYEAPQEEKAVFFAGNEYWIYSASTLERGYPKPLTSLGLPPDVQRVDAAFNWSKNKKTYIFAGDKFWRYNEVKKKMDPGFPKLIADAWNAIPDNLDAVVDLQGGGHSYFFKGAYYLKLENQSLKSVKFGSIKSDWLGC
T1 sequence (P08183 whole entry): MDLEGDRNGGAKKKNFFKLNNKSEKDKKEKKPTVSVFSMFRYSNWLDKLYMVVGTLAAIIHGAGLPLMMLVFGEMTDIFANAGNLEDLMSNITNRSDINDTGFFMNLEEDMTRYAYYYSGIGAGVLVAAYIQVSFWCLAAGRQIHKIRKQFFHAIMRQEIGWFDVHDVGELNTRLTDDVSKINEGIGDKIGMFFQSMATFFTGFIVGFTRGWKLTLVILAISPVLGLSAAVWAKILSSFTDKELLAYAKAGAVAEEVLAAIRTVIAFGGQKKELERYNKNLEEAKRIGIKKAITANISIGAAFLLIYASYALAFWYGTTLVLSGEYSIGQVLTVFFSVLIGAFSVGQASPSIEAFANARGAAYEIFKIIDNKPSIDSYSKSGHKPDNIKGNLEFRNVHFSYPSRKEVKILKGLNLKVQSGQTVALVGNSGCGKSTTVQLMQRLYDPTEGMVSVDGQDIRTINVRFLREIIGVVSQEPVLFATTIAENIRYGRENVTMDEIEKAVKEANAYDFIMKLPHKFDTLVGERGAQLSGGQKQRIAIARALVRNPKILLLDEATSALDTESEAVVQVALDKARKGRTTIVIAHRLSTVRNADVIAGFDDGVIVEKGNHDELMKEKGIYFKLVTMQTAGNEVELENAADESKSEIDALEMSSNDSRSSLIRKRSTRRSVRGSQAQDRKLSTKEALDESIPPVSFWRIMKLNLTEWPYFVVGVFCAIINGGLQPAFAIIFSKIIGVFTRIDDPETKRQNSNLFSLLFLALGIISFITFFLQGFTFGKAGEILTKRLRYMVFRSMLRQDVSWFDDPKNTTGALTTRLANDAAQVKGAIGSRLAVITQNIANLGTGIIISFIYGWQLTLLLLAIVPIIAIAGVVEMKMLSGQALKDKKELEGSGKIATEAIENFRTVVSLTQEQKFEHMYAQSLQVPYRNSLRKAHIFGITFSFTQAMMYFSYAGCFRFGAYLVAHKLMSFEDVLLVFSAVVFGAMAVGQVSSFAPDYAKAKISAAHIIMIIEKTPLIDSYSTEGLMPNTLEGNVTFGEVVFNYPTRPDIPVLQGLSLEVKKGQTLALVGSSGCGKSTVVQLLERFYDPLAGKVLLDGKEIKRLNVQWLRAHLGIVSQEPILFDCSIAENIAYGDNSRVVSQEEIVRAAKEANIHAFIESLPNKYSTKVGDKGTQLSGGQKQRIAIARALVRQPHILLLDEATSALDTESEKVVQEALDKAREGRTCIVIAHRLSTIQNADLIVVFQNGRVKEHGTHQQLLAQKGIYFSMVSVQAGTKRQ
Chain of 26S proteasome non-ATPase regulatory subunit 14 (O00487 whole entry): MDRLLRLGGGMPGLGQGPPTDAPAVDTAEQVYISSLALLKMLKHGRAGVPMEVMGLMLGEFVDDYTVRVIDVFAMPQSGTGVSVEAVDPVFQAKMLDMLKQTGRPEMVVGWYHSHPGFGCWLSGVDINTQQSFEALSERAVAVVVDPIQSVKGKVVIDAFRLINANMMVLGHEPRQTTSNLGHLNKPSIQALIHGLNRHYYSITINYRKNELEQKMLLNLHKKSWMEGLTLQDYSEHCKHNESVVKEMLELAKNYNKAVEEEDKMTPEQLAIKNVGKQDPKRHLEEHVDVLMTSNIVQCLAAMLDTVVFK
Chain of Diacylglycerol lipase-beta (Q91WC9 whole entry): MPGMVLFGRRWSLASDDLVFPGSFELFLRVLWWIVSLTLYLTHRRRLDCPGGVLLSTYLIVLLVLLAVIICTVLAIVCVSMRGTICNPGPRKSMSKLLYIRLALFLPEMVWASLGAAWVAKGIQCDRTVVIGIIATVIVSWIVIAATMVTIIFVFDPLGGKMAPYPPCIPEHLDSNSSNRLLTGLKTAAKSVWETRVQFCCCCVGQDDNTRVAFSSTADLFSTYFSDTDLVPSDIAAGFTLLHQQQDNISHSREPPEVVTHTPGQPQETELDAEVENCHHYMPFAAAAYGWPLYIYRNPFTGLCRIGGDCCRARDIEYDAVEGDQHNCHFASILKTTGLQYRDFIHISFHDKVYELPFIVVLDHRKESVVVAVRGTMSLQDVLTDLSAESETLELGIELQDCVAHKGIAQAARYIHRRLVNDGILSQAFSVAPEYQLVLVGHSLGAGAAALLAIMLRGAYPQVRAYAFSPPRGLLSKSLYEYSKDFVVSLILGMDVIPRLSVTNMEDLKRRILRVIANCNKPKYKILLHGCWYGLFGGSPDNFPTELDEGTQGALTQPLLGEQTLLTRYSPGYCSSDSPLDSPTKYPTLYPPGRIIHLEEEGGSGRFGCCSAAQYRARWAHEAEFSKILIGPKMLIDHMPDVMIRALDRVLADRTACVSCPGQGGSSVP
Chain of DNA (cytosine-5)-methyltransferase 1 (P26358 whole entry): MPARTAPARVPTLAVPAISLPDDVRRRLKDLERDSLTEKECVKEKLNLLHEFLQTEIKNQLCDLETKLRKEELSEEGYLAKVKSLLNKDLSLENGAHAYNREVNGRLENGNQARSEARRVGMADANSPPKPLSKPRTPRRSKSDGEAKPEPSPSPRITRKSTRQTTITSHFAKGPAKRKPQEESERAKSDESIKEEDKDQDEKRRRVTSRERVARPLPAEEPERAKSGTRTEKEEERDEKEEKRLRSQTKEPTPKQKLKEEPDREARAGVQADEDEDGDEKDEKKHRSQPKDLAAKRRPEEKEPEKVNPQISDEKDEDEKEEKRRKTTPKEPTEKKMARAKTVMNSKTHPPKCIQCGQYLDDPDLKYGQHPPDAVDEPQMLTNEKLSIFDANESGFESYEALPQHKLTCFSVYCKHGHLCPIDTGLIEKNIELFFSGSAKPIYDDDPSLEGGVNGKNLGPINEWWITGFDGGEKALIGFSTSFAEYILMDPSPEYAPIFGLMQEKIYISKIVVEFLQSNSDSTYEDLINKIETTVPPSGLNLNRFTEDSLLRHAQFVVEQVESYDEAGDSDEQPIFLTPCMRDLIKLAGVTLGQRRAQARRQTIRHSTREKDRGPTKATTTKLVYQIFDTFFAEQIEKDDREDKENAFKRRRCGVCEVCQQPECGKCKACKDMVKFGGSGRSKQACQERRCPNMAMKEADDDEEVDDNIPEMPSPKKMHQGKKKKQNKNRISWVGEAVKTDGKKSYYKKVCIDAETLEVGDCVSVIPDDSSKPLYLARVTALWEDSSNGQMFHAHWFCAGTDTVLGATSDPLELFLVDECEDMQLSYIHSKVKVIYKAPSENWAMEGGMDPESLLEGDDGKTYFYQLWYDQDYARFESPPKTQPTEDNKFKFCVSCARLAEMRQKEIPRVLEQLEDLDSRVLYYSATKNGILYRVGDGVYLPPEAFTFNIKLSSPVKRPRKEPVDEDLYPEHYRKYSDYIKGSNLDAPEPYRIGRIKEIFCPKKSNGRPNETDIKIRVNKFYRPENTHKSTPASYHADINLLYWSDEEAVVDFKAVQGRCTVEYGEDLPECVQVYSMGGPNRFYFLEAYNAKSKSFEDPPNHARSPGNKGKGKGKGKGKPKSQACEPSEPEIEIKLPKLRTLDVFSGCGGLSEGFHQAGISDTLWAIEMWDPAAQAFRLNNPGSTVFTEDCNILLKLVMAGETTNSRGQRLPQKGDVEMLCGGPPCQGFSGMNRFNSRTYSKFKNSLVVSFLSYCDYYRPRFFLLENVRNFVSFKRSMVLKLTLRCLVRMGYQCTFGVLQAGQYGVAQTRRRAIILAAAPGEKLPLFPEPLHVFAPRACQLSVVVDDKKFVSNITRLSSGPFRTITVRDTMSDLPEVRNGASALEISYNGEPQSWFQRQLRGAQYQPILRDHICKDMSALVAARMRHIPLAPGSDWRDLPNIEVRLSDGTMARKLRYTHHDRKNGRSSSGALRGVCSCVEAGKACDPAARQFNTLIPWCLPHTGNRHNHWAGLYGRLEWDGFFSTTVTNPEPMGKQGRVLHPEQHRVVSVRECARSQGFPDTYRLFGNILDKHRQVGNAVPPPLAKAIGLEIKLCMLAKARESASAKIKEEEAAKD

Turning to `O=C(N1CCCCC1Cc1ccccc1)n1cc(-c2ccc(OC(F)(F)F)cc2)nn1` (stereo unspecified), the IC50 in experiment [1] is 52 nM (active).

Regarding `COc1ccccc1-c1cc2nc(-c3ccccc3)cc(N3CCN(C(=O)c4ccccc4)CC3)n2n1`, the EC50 in [2] is 720 nM (active); in [3], 2.87 µM (active).

On to `CC1=NN(c2ccccc2)C(=O)C1/C=C1\NC(=S)NC1=O` (stereo unspecified), for which the IC50 on Prothrombin is 52.8 µM (active); in [5] it was > 100 µM (inactive); in [6], 238 µM (active); in experiment [7] it was 32.4 µM (active); in [8] it was 8.39 µM (active). Also, the AC50 in [4] was 4.16 µM (active).

In the case of `CC[n+]1c(/C=C/Nc2ccccc2)oc2ccc(OC)cc21`, the EC50 in [9] is 3.35 µM (active). Besides, the IC50 was 55.6 µM (active) at Prothrombin, > 100 µM (inactive) in experiment [5] and 23.2 µM (active) in [7].

Regarding `Cc1ccc(NCC(C)C(=O)O)cc1C` (stereo unspecified), the EC50 in [10] is > 100 µM (inactive).

Consider `c1cc(-c2cnc3cccnn23)c2cccnc2c1`, for which the values for the IC50 at Interleukin-8 [11] and on Interleukin-8 [12] were 56.5 µM (inactive) and 14.4 µM (inactive), respectively.

Values taken from ChEMBL document CHEMBL1201862, “PubChem BioAssay data set” (2004).
